Source: patent US20200390095A1, “USE OF ERYTHRITOL OR COMPOSITIONS COMPRISING SAME AS MAMMAL-SAFE INSECTICIDES” (Drexel University, priority 2014, published 2020)

How the values were obtained:
[1] = test system: fruit flies; test: Longevity comparison of erythritol with other human-safe sweet alcohols; type: in vivo, Drosophila melanogaster; details: 1 M sweetener in standard fly food, 17 days; for longevity compared to sucrose control: log rank test
Protocol: An experiment was conducted to compare the effectiveness of erythritol with other human-safe sweet alcohols: D-mannitol, maltitol, sucrose, and xylitol. The concentration of all sweet alcohols were 1M. Flies were raised for 17 days on standard fly food that contained 1 M concentrations of each sweetener treatment. Death of flies was recorded daily as before; each treatment was replicated on three vials of 10 flies each for 30 subjects/treatment. Differences in longevity were analyzed using the Kaplan-Meier survival analysis log rank test, making all pairwise comparisons among treatments.

[2] = test system: Drosophila melanogaster; test: Two-way choice experiments, longevity; type: in vivo; details: 30 days
Protocol: Foods containing 2 M erythritol, 1M erythritol and 1M sucrose were prepared for paired presentations in open choice tests. In each treatment one food type contained 0.05% brilliant blue FCF (Fisher 50-727-25). The blue dye allowed visual confirmation of feeding on the dyed food in the pair. The flies were presented with access to two food choices by using a modified cotton stopper with approximately a 1.5 cm diameter hole to connect each pair of food tubes. […] The final choice treatment was between blue 2M erythritol food and non-blue 1M sucrose food (this treatment provides a comparison with the 1 M erythritol/1 M erythritol treatment as a test of dilution of toxicity by alternative food sources; blue guts would confirm erythritol was being consumed in the presence of sucrose). The number of flies with visible blue gut contents and mortality daily were recorded for 30 days. Analyses were conducted with SPSS software v. 20 (IBM corporation 2011). Fly longevity data were analyzed using survival analysis with right-hand censoring of subjects that lived to the end of the study or were lost for reasons other than death. Test were run for differences in survival distributions [Pr(flies alive) versus insect age] using the log-rank (Mantel-Cox) test to make all pairwise comparisons among treatments within each experiment.

[3] = test system: Drosophila melanogaster; test: Longevity assay of adult flies raised on food containing sweeteners; type: in vivo; details: repeat study with blue dye food
Protocol: All animals were cultured at 25° C., kept at 50-60% humidity, and were raised under a standard 12:12 light dark cycle. For each experimental treatment, n=30 flies were tested in groups of 10 per tube, and three tubes per treatment. Tubes were kept on their side to minimize subject becoming mired in the food. Foods were replaced twice a week. The total number of fruit flies used for these experiments was 780, with 300 used for two initial trials testing mortality among store-brand sweeteners, 210 used for repeating this with blue dye and pure erythritol, 120 for choice trials and 150 for concentration trials.
Standard Drosophila food for larval culturing consisted of water, cornmeal, yeast, molasses, and agar, as previously described (Chakraborty, et al., 2011, PLoS ONE 6: e20799). […] The addition of cornmeal and yeast assured the flies still received sufficient carbohydrates and protein in addition to any effects of the treatment additives.
Drosophila food was combined with an equal weight/volume (0.0238 g/ml) of one non-nutritive sweetener (TRUVIA, EQUAL, SPLENDA, SWEET'NLOW, or PUREVIA) or a control nutritive sweetener (controls: sucrose or corn syrup). Wild type (Canton S) larvae were initially raised on the standard food, and 0-12 hour old adult flies were transferred to foods containing one non-nutritive sweetener or a control treatment. […] The number of dead flies were scored daily.

[4] = test system: humans; details: oral consumption; cited from earlier work
[5] = test system: Drosophila melanogaster; test: Concentration trials of erythritol on fly longevity; type: in vivo
Protocol: Standard fly foods were prepared as previously described, and then were treated with 2M, 1M, 0.5M and 0.1M concentrations of erythritol, using 0.5M sucrose as control. 0 to 24 hour-old Drosophila were placed on these foods and mortality was recorded daily for 35 days as above. Analyses were conducted with SPSS software v. 20 (IBM corporation 2011). Fly longevity data were analyzed using survival analysis with right-hand censoring of subjects that lived to the end of the study or were lost for reasons other than death. Test were run for differences in survival distributions [Pr(flies alive) versus insect age] using the log-rank (Mantel-Cox) test to make all pairwise comparisons among treatments within each experiment.

For `OC[C@@H](O)[C@@H](O)[C@H](O)[C@H](O)CO` [D-mannitol], the “longevity compared to sucrose control” value [1] was “slightly but significantly reduced longevity”.
With `OC[C@@H](O)[C@@H](O[C@H]1O[C@H](CO)[C@@H](O)[C@H](O)[C@H]1O)[C@H](O)[C@@H](O)CO` [maltitol] the “longevity compared to sucrose control” value [1] was “did not differ from the control”.
In the case of `OC[C@@H](O)[C@@H](O)CO` [erythritol, (2R,3S)-butane-1,2,3,4-tetraol], the “longevity relative to sucrose:sucrose choice” value ([2]; choice between 1M sucrose and 1M erythritol) was “significantly decreased longevity”, the “longevity relative to sucrose:sucrose choice” value ([2]; choice between 1M sucrose and 2M erythritol) was “significantly reduced” and the “survival distributions, 2M erythritol/1M sucrose choice versus 1M erythritol/1M erythritol” value ([2]; choice chamber) was “nearly identical”. The “longevity, erythritol versus TRUVIA treatment” value ([3]; 0.0238 g/ml) was “did not differ”, the “longevity compared to PUREVIA, EQUAL, sucrose and corn syrup” value ([3]; 0.0238 g/ml of each sweetener) was “significant decreases in longevity” and the “tolerability of consumption by humans” value [4] was “very well tolerated”. The mean fly longevity ([1]; mean ± SE) was 4.7 ± 0.15 days, the “longevity compared to control food containing 0.5M sucrose” value ([5]; 0.1M erythritol in food, observations terminated at 35 days) was “no significant difference in longevity” and the “longevity compared to control food containing 0.5M sucrose” value ([5]; 0.5M erythritol in food, 35 days) was “significant reductions in longevity”. For the same compound, the “longevity compared to control food containing 0.5M sucrose” value ([5]; 1M erythritol in food, 35 days) was “significant reductions in longevity” and the “effect on longevity compared to all other treatments” value ([5]; 2M erythritol in food, 35 days) was “significant and severe effect on longevity”.
With `OC[C@@H](O)[C@H](O)[C@@H](O)CO` [xylitol] the “longevity compared to sucrose control” value [1] was “did not differ from the control”.
